Holding throughout (format): cell-based
In experiment [1] the test system is Human diffuse large B-cell lymphoma cell line (TMD8). Kind of experiment: Inhibition of TMD8 cell proliferation (CellTiter luminescent viability). The settings on record: Homo sapiens, TMD8, 96 h; for inhibition at 0.01 µM: TMD8, 10 nM, read-out: Inhibition Rate at 10 nM (%); for inhibition at 0.5 µM: TMD8, 500 nM, read-out: Inhibition Rate at 500 nM (%). The protocol: (§1) The tumor cells used herein were cultured in a cell culture medium listed in table 3 at 37 °C in an incubator with 5% CO2. Prior to experimentation, all cell lines used were correctly identified by STR profiling, and tested negative for mycoplasma contamination using a mycoplasma detection kit through routine screenings.
(§2) The IC50 values of the compounds of the present disclosure (including the compounds in Table 1, Table 2, and Examples 1-468) were determined using the CellTiter-Meiluncell Luminescent Cell Viability Assay Kit from Dalian Meilun Biotech Co., Ltd. The detailed procedure is as follows: Tumor cells were seeded in 96-well cell culture plates at the densities specified in Table 4. On the following day, the test compounds of the present disclosure were subjected to serial dilution. The dilution can be performed according to one of the following two methods: • (1) The first dilution method: The test compounds of the present disclosure (including the compounds in Table 1, Table 2, and Examples 1-468) were subjected to 5-fold serial dilutions starting from a highest concentration of 2000 μM, resulting in a total of 9 concentrations from high to low (2000, 400, 80, 16, 3.2, 0.64, 0.128, 0.0256, 0.00512 μM). Subsequently, 0.5 μL of the test compound dilution was transferred into the 96-well plate containing the cells, with each well containing 100 μL of cell culture medium. […] Into the 96-well plate, the diluted test compounds and corresponding detection reagents were added, resulting in final test compound concentrations of 500 nM and 10 nM, respectively. The experimental procedure is described below using the diluted 2 μM test compound as an example.
(§3) 0.5 μL of the aforementioned diluted compound of the present disclosure (including the compounds in Table 1, Table 2, and Examples 1-468) was added to the seeded cells in 100 μL of medium, yielding a final test compound concentration of 10 nM. After the cells were treated with the compounds of the present disclosure for a specified period, the cell viability assay reagent was added to the culture medium according to the kit's instructions to determine cell viability. […] All controls were treated using the same procedure as the compounds of the present disclosure. The growth inhibition curves for the compounds of the present disclosure were plotted using Prism GraphPad software, and the IC50 values were calculated therefrom.

In experiment [2] the test system is Human acute lymphocytic leukemia T lymphocytes cell line (CCRF-CEM). Nature of the experiment: Inhibition of CCRF-CEM cell proliferation (CellTiter luminescent viability). The settings on record: Homo sapiens, 96 h, Table IF2, AR inhibitor-based; for inhibition at 0.01 µM: 10 nM, read-out: Inhibition Rate at 10 nM (%); for inhibition at 0.5 µM: 500 nM, read-out: Inhibition Rate at 500 nM (%). As for the experimental part:
as §1, §2, §3

The test system of experiment [3] is Human Multiple myeloma cell line (MM.1S). Nature of the experiment: Inhibition of MM.1S cell proliferation (CellTiter luminescent viability). Particulars: Homo sapiens, MM1.S, Table IJ1, Tau inhibitor-based, 96 hours; for inhibition at 0.01 µM: 10 nM, read-out: Inhibition Rate at 10 nM (%); for inhibition at 0.5 µM: 500 nM, read-out: Inhibition Rate at 500 nM (%). An outline of the steps:
(§4)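 IC50 is fitted from luminescent viability (CellTiter-Meiluncell) curves. Nine-point, 5-fold dilution series (top stock 2000 μM) are added at 0.5 μL per 100 μL medium to cells plated the day before, with growth at 37 °C and 5% CO2.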

Experiment [4] has as its system Human myeloid monocytic leukemia cell line (MV-4-11). Kind of experiment: Inhibition of MV-4-11 cell proliferation (CellTiter luminescent viability). The settings on record: Homo sapiens, MV4-11, Table IJ2, Tau inhibitor-based, 96 hours; for inhibition at 0.01 µM: MV-4-11, 10 nM, read-out: Inhibition Rate at 10 nM (%); for inhibition at 0.5 µM: MV-4-11, 500 nM, read-out: Inhibition Rate at 500 nM (%). In short, it runs like this: as §4

The inhibition is the change of the read-out against control, counted positive when it falls.

Read-outs that look alike come from different tables or passages of the source.

On to `CC1(C)[C@H](NC(=O)c2ccc(N3CCC(CN4CCN(C5CCN(c6ccc7c(c6)C(=O)N(N6CCC(=O)NC6=O)C7=O)CC5(F)F)CC4)CC3)nc2)C(C)(C)[C@H]1Oc1ccc(C#N)c(Cl)c1` (stereo partly shown) [GT-05347, N-((1r,3r)-3-(3-chloro-4-cyanophenoxy)-2,2,4,4-tetramethylcyclobutyl)-6-(4-((4-(1-(2-(2,4-dioxotetrahydropyrimidin-1(2H)-yl)-1,3-dioxoisoindolin-5-yl)-3,3-difluoropiperidin-4-yl)piperazin-1-yl)methyl)piperidin-1-yl)nicotinamide], for which, in experiment [1] (Table IF1, AR inhibitor-based), the inhibition at 0.01 µM lay within 5 to 10% and the inhibition at 0.5 µM was 20 to 25%.

Turning to `O=C1CCN(N2C(=O)c3ccc(COc4ccc(Cl)cc4-c4nc5cc(C(F)(F)F)cc(Cl)c5[nH]4)cc3C2=O)C(=O)N1` [GT-06478, 5-((4-chloro-2-(7-chloro-5-(trifluoromethyl)-1H-benzo[d]imidazol-2-yl)phenoxy)methyl)-2-(2,4-dioxotetrahydropyrimidin-1(2H)-yl)isoindoline-1,3-dione], in experiment [1] (Table IF1, AR inhibitor-based), the inhibition at 0.01 µM was 15 to 20% and the inhibition at 0.5 µM lay within 30 to 35%.

In the case of `CC1(C)[C@H](NC(=O)c2ccc(N3CCC(CN4CC5CC(C4)N5c4ccc5c(c4)C(=O)N(N4CCC(=O)NC4=O)C5=O)CC3)nc2)C(C)(C)[C@H]1Oc1ccc(C#N)c(Cl)c1` [GT-05306, N-((1r,3r)-3-(3-chloro-4-cyanophenoxy)-2,2,4,4-tetramethylcyclobutyl)-6-(4-((6-(2-(2,4-dioxotetrahydropyrimidin-1(2H)-yl)-1,3-dioxoisoindolin-5-yl)-3,6-diazabicyclo[3.1.1]heptan-3-yl)methyl)piperidin-1-yl)nicotinamide], the inhibition at 0.01 µM in experiment [2] lay within 15 to 20%; in experiment [1] (Table IF1, AR inhibitor-based), 10 to 15%. Also, the inhibition at 0.5 µM in experiment [2] lay within 20 to 30%; in experiment [1] (Table IF1, AR inhibitor-based), 20 to 25%.

Consider `CC1(C)[C@H](NC(=O)c2ccc(N3CCC(CN4CCN(c5cc6c(cc5F)C(=O)N(N5CCC(=O)NC5=O)C6=O)CC4)CC3)nc2)C(C)(C)[C@H]1Oc1ccc(C#N)c(Cl)c1` [GT-05304, N-((1r,3r)-3-(3-chloro-4-cyanophenoxy)-2,2,4,4-tetramethylcyclobutyl)-6-(4-((4-(2-(2,4-dioxotetrahydropyrimidin-1(2H)-yl)-6-fluoro-1,3-dioxoisoindolin-5-yl)piperazin-1-yl)methyl)piperidin-1-yl)nicotinamide], for which, in experiment [2], the inhibition at 0.01 µM was 20 to 30% and the inhibition at 0.5 µM is 30 to 40%. Besides, in experiment [1] (Table IF1, AR inhibitor-based), the inhibition at 0.01 µM lay within 30 to 35% and the inhibition at 0.5 µM lay within 40 to 60%.

As for `Cn1c2ccncc2c2ccc(-c3cnc(N4CCN(CC5CCN(c6ccc7c(c6)C(=O)N(N6CCC(=O)NC6=O)C7=O)CC5)CC4)c(C(F)(F)F)c3)cc21` [GT-08553, 2-(2,4-dioxotetrahydropyrimidin-1(2H)-yl)-5-(4-((4-(5-(5-methyl-5H-pyrido[4,3-b]indol-7-yl)-3-(trifluoromethyl)pyridin-2-yl)piperazin-1-yl)methyl)piperidin-1-yl)isoindoline-1,3-dione], in experiment [1] (Table IJ3, Tau inhibitor-based), the inhibition at 0.01 µM is 10 to 15% and the inhibition at 0.5 µM was 40 to 50%.

For `O=C1CCN(N2C(=O)c3cccc(N4CCC(CN5CCN(c6ccc(-c7ccc8c(c7)[nH]c7ccncc78)cn6)CC5)CC4)c3C2=O)C(=O)N1` [GT-08557, 4-(4-((4-(5-(5H-pyrido[4,3-b]indol-7-yl)pyridin-2-yl)piperazin-1-yl)methyl)piperidin-1-yl)-2-(2,4-dioxotetrahydropyrimidin-1(2H)-yl)isoindoline-1,3-dione], in experiment [3], the inhibition at 0.01 µM lay in the range of 30 to 40% and the inhibition at 0.5 µM lay in the range of 50 to 60%. Besides, in experiment [1] (Table IJ3, Tau inhibitor-based), the inhibition at 0.01 µM is 0 to 5% and the inhibition at 0.5 µM is 60 to 70%.

On to `Cc1cc(-c2ccc3c4cnccc4n(C)c3c2)cnc1N1CCN(CC2CCN(c3cccc4c3C(=O)N(N3CCC(=O)NC3=O)C4=O)CC2)CC1` [GT-08563, 2-(2,4-dioxotetrahydropyrimidin-1(2H)-yl)-4-(4-((4-(3-methyl-5-(5-methyl-5H-pyrido[4,3-b]indol-7-yl)pyridin-2-yl)piperazin-1-yl)methyl)piperidin-1-yl)isoindoline-1,3-dione], for which the inhibition at 0.01 µM in experiment [3] lay in the range of 15 to 20%; in experiment [4], 15 to 20%; in experiment [1] (Table IJ3, Tau inhibitor-based), 15 to 20%. In addition, the inhibition at 0.5 µM was 60 to 70% in experiment [3]; 80 to 100% in experiment [4]; 80 to 100% in experiment [1] (Table IJ3, Tau inhibitor-based).

Turning to `Cn1c2ccncc2c2ccc(-c3cnc(N4CCN(CC5CCN(c6cccc7c6C(=O)N(N6CCC(=O)NC6=O)C7=O)CC5)CC4)c(Cl)c3)cc21` [GT-08564, 4-(4-((4-(3-chloro-5-(5-methyl-5H-pyrido[4,3-b]indol-7-yl)pyridin-2-yl)piperazin-1-yl)methyl)piperidin-1-yl)-2-(2,4-dioxotetrahydropyrimidin-1(2H)-yl)isoindoline-1,3-dione], the inhibition at 0.01 µM in experiment [4] was in the range of 0 to 5%; in experiment [1] (Table IJ3, Tau inhibitor-based), 10 to 15%. The inhibition at 0.5 µM was 70 to 80% in experiment [4] and 80 to 100% in experiment [1] (Table IJ3, Tau inhibitor-based).

For `N#Cc1ccc(O[C@H]2CC[C@H](NC(=O)c3ccc(N4CCC(CN5CCN(c6ccc7c(c6F)C(=O)N(N6CCC(=O)NC6=O)C7=O)CC5)CC4)nn3)CC2)cc1Cl` [GT-05232, N-((1r,4r)-4-(3-chloro-4-cyanophenoxy)cyclohexyl)-6-(4-((4-(2-(2,4-dioxotetrahydropyrimidin-1(2H)-yl)-4-fluoro-1,3-dioxoisoindolin-5-yl)piperazin-1-yl)methyl)piperidin-1-yl)pyridazine-3-carboxamide], in experiment [1] (Table IF1, AR inhibitor-based), the inhibition at 0.01 µM lay within 10 to 15% and the inhibition at 0.5 µM was 25 to 30%.

For the compound `Cn1c2ccncc2c2ccc(-c3ccc(N4CCN(CC5CCN(c6cccc7c6C(=O)N(N6CCC(=O)NC6=O)C7=O)CC5)CC4)nc3)cc21` [GT-08558, 2-(2,4-dioxotetrahydropyrimidin-1(2H)-yl)-4-(4-((4-(5-(5-methyl-5H-pyrido[4,3-b]indol-7-yl)pyridin-2-yl)piperazin-1-yl)methyl)piperidin-1-yl)isoindoline-1,3-dione], in experiment [4], the inhibition at 0.01 µM is -5 to 0% and the inhibition at 0.5 µM was 50 to 60%. For the same compound, in experiment [1] (Table IJ3, Tau inhibitor-based), the inhibition at 0.01 µM is 5 to 10% and the inhibition at 0.5 µM fell in the range of 80 to 100%.
